Common to all, as to assay type: cell-based
The target in experiment [1] is T1, LPAR1 (Homo sapiens, UniProt Q92633).
T1 construct: host or cells: U2OS
Briefly: LPAR1 FLIPR Assay. The following applies: U2OS cells stably expressing LPAR1, LPA (EC80), Calcium 6 FLIPR dye; for Emax: read-out: Maximum Inhibition. A digest of the protocol:
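Calcium flux read-out (515-575 nm, FLIPR) in LPAR1-expressing U2OS cells after LPA challenge at EC80, given 3 min after compound addition; cells carried Calcium 6 dye loaded 2 h at 37° C. Eleven-point 3-fold dilutions were fitted with a four-parameter Hill equation for IC50.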

Experiment [2] deals with T1, LPAR1. Description: IP-One HTRF Assay. The following applies: U2OS cells stably expressing LPAR1, LPA stimulation, IP-One Tb HTRF kit; for Emax: read-out: Maximum Inhibition. A digest of the protocol:
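U2OS cells stably expressing LPAR1 were preincubated with compound (11-point 3-fold series from 2 mM DMSO stock) for 20 min at 37 °C, then stimulated with LPA for 2 h at 37 °C. IP1 accumulation was read by IP-One HTRF (665/615 nm ratio). IC50 came from four-parameter logistic Hill fits.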

Experiment [3] deals with LPA-induced MCP-1 in NRK-49F cells. Briefly: LPA-induced MCP-1 AlphaLISA assay. To be noted: Rattus norvegicus, final LPA 10 μM, 7 hours; for Emax: read-out: Maximum Inhibition. In outline: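 NRK-49F rat fibroblasts, serum-starved overnight, pretreated with compound for 30 min at 37 °C (1% DMSO final), then stimulated with 10 μM LPA final. MCP-1 in the supernatant was measured by mouse/rat CCL2 AlphaLISA. IC50 values came from four-parameter logistic fits of the ratio data.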
Background: In Alpha technology, singlet oxygen from a donor bead excites a nearby acceptor bead.

Usually IC50 stands for the concentration at which inhibition is half-maximal.

T1 sequence (Q92633 whole entry): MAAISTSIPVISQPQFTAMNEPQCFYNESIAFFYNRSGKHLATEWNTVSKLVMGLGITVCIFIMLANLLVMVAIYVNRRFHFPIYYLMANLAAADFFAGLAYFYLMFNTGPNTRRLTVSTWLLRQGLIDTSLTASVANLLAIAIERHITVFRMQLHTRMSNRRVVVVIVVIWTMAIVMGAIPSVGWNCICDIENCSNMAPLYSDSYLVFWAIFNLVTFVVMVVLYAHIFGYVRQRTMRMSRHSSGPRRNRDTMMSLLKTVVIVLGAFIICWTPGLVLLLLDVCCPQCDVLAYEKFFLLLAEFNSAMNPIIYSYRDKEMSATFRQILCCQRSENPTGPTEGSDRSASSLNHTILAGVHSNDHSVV

For the compound `COc1cc(C(=O)N(CCCc2ccccc2)CC(=O)NC2(C(=O)O)CC2)cc(OC)c1C` [Example 3, 1-{[N-(3,5-dimethoxy-4-methylbenzoyl)-N-(3-phenylpropyl)glycyl]amino}cyclopropane-1-carboxylic Acid], the IC50 came to 71 nM on LPAR1 [1], 4270 nM against LPAR1 [2] and 3120 nM in experiment [3]. Also, the Emax turned out to be 52% at LPAR1 [1], 76% at LPAR1 [2] and 74% in experiment [3].
As for `COc1ccc(C2(C(=O)N(CCCCC(=O)O)CCCc3ccccc3)CC2)cc1` [Example 8, 5-{[1-(4-methoxyphenyl)cyclopropane-1-carbonyl](3-phenylpropyl)amino}pentanoic Acid], the IC50 at LPAR1 [1] was determined as 17 nM; on LPAR1 [2] it was 2250 nM; in experiment [3], 1830 nM. In addition, the Emax on LPAR1 [1] was 86%; on LPAR1 [2], 84%; in experiment [3], 84%.
Take `COc1cc(C(=O)N(CCCCC(=O)O)CCCc2ccco2)cc(OC)c1C` [Example 173, 5-{(3,5-dimethoxy-4-methylbenzoyl)[3-(furan-2-yl)propyl]amino}pentanoic Acid]: the IC50 amounted to 29 nM on LPAR1 [1], 523 nM on LPAR1 [2] and 4540 nM in experiment [3]. Besides, the Emax was 74% at LPAR1 [1], 75% at LPAR1 [2] and 64% in experiment [3].
Take `COc1cc(C(=O)N(CCCCC(=O)NS(C)(=O)=O)CCCc2ccccc2)cc(OC)c1C` [Example 111, N-{5-[(methanesulfonyl)amino]-5-oxopentyl}-3,5-dimethoxy-4-methyl-N-(3-phenylpropyl)benzamide]: the IC50 on LPAR1 [1] turned out to be 28 nM; against LPAR1 [2], 570 nM; in experiment [3], 787 nM. Besides, the results for the Emax (at LPAR1 [1]; on LPAR1 [2]; in experiment [3]) were 95%, 80% and 91%, respectively.
With `COc1cc(C(=O)N(CCCCC(=O)O)CCCc2ccccc2)cc(OC)c1Br` [Example 20, 5-[(4-bromo-3,5-dimethoxybenzoyl)(3-phenylpropyl)amino]pentanoic Acid], the IC50 at LPAR1 [1] was found to be 20 nM; against LPAR1 [2], 50 nM; in experiment [3], 169 nM. Also, the Emax is 99% on LPAR1 [1], 102% at LPAR1 [2] and 89% in experiment [3].
`COc1cc(C(=O)N(CCCCC(=O)O)CCCc2ccc(F)cc2)cc(OC)c1C` [Example 34, 5-{(3,5-dimethoxy-4-methylbenzoyl)[3-(4-fluorophenyl)propyl]amino}pentanoic Acid]: the results for the IC50 (on LPAR1 [1]; against LPAR1 [2]; in experiment [3]) were 24 nM, 880 nM and 786 nM, respectively. Besides, the Emax at LPAR1 [1] amounted to 96%; at LPAR1 [2], 70%; in experiment [3], 77%.
Take `COc1ccc(C2(C(=O)N(CCCc3ccccc3)CCSCC(=O)O)CC2)cc1` [Example 115, [(2-{[1-(4-methoxyphenyl)cyclopropane-1-carbonyl](3-phenylpropyl)amino}ethyl)sulfanyl]acetic Acid]: the concentration for half-maximal inhibition (IC50) worked out at 30 nM on LPAR1 [1], 2910 nM at LPAR1 [2] and 3540 nM in experiment [3]. Moreover, the Emax at LPAR1 [1] turned out to be 78%; at LPAR1 [2], 71%; in experiment [3] it was 67%.
Regarding `COc1cc(C(=O)N(CCCc2ccccc2F)CCOCC(=O)O)cc(OC)c1C` [Example 110, (2-{(3,5-dimethoxy-4-methylbenzoyl)[3-(2-fluorophenyl)propyl]amino}ethoxy)acetic Acid], the IC50 was determined as 16 nM at LPAR1 [1], 902 nM on LPAR1 [2] and 1260 nM in experiment [3]. The Emax on LPAR1 [1] was 90%; at LPAR1 [2], 82%; in experiment [3] it was 83%.
Consider `COc1cc(OC)cc(C(=O)N(CCCCC(=O)O)CCCc2ccccc2)c1` [Example 7, 5-[(3,5-dimethoxybenzoyl)(3-phenylpropyl)amino]pentanoic Acid], for which the IC50 is 32 nM on LPAR1 [1], 1750 nM at LPAR1 [2] and 2630 nM in experiment [3]. Besides, the figures for the Emax (at LPAR1 [1]; at LPAR1 [2]; in experiment [3]) were 82%, 75% and 71%, respectively.
For the compound `COc1cc(C(=O)N(CCCCC(=O)O)CCCc2ccccc2)cc(OC)c1C(F)(F)F` [Example 37, 5-{[3,5-dimethoxy-4-(trifluoromethyl)benzoyl](3-phenylpropyl)amino}pentanoic Acid], the IC50 was 32 nM at LPAR1 [1], 69 nM on LPAR1 [2] and 479 nM in experiment [3]. The Emax at LPAR1 [1] was 96%; at LPAR1 [2] it was 79%; in experiment [3] it was 81%.
Take `COc1cc(OC)cc(C(=O)N(CCCCC(=O)O)CCCc2cccc(Cl)c2)c1` [Example 91, 5-{[3-(3-chlorophenyl)propyl](3,5-dimethoxybenzoyl)amino}pentanoic Acid]: the IC50 was found to be 25 nM at LPAR1 [1], 285 nM against LPAR1 [2] and 2090 nM in experiment [3]. For the same compound, the Emax at LPAR1 [1] is 89%; on LPAR1 [2], 70%; in experiment [3] it was 84%.
On to `COc1cc(C(=O)N(CCCc2ccccc2)CCC[C@@H](C)C(=O)O)cc(OC)c1C` (single isomer, unassigned) [Example 77], for which the figures for the IC50 (at LPAR1 [1]; against LPAR1 [2]; in experiment [3]) were 20 nM, 77 nM and 60 nM, respectively. Besides, the Emax came out at 100% on LPAR1 [1], 84% at LPAR1 [2] and 92% in experiment [3].
As for `COc1cc(C(=O)N(CCCCC(=O)O)CCCc2ccccc2F)cc(OC)c1C` [Example 32, 5-{(3,5-dimethoxy-4-methylbenzoyl)[3-(2-fluorophenyl)propyl]amino}pentanoic Acid], the IC50 at LPAR1 [1] was determined as 18 nM; on LPAR1 [2], 321 nM; in experiment [3], 473 nM. For the same compound, the Emax at LPAR1 [1] is 98%; on LPAR1 [2], 88%; in experiment [3], 89%.
For the compound `COc1cc(C(=O)N(CCCc2cccc(F)c2)CCSCC(=O)O)cc(OC)c1C` [Example 117, [(2-{(3,5-dimethoxy-4-methylbenzoyl)[3-(3-fluorophenyl)propyl]amino}ethyl)sulfanyl]acetic Acid], the IC50 was found to be 10 nM at LPAR1 [1], 473 nM on LPAR1 [2] and 180 nM in experiment [3]. Moreover, the Emax on LPAR1 [1] came to 93%; at LPAR1 [2] it was 85%; in experiment [3], 91%.
Turning to `COc1cc(C(=O)N(CCCc2ccccc2F)CCSCC(=O)O)cc(OC)c1C` [Example 116, [(2-{(3,5-dimethoxy-4-methylbenzoyl)[3-(2-fluorophenyl)propyl]amino}ethyl)sulfanyl]acetic Acid], the IC50 was 20 nM on LPAR1 [1], 344 nM at LPAR1 [2] and 173 nM in experiment [3]. Also, the Emax on LPAR1 [1] was found to be 88%; on LPAR1 [2] it was 81%; in experiment [3], 85%.
On to `COc1cc(C(=O)N(CCCc2cccc(Cl)c2)CCOCC(=O)O)cc(OC)c1C` [Example 109, (2-{[3-(3-chlorophenyl)propyl](3,5-dimethoxy-4-methylbenzoyl)amino}ethoxy)acetic Acid], for which the 50% inhibitory concentration (IC50) came to 15 nM on LPAR1 [1], 809 nM against LPAR1 [2] and 1550 nM in experiment [3]. For the same compound, the Emax on LPAR1 [1] turned out to be 93%; at LPAR1 [2], 85%; in experiment [3], 91%.

The values are drawn from US20190119200A1, “TERTIARY AMIDES AND METHOD OF USE” (AbbVie Inc., priority 2016, published 2019).
